Laboratory results from patent publication US20250230138A1, “COMPOUNDS HAVING A T-STRUCTURE FORMED BY AT LEAST FOUR CYCLES FOR USE IN THE TREATMENT OF CANCER AND OTHER INDICATIONS” (TheRas, Inc., priority 2022, published 2025).
Read-outs that look alike come from different tables or passages of the source.

Tests used:
pAKT in BT474 cells = assay: Cell-based pAKT HTRF assay in BT474 cells; conditions: BT474 cells, 4 hr incubation, read-out: pAKT inhibition IC50 in BT474 cells
How it was run: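 pAKT was measured by HTRF after a 4 hr compound exposure in BT474 cells (DMEM, 10% FBS, 0.25% DMSO), using 9 concentrations from 3 μM in 3-fold steps. Cell lysates were incubated with the Eu cryptate/d2 antibody pair at room temperature for 4 to 24 h. The plate was then read at 320 nm excitation and 615 nm emission.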

[1] = molecular target: Cys242 in human PIK3CA (157-299) (Homo sapiens (Human), UniProt P42336); assay: Covalent modification assay using MALDI-TOF MS; type: biochemical; conditions: 4 h reaction time point; 1 μM protein target, 1:5 protein to compound ratio (compounds 853-1279)
Sequence of Cys242 in human PIK3CA (157-299) (P42336 157-299): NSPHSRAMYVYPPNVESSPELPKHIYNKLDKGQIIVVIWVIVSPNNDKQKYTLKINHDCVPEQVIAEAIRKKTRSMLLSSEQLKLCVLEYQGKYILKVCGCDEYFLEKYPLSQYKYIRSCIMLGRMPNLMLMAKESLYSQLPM
How it was run: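 PIK3CA (157-299) at 3.33 μM or 1 μM in 20 mM HEPES, 150 mM NaCl, 2 mM MgCl2, pH 7.3 was incubated with compound (from 10 mM DMSO stocks) in the dark at room temperature for 15 min, 30 min, 2 h or 4 h. Linear-mode MALDI-TOF peak heights gave percent modification.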

| SMILES | IC50 (pAKT in BT474 cells; Compounds 10-999) | % of modification [1] | IC50 (pAKT in BT474 cells; Homo sapiens, BT-474, Compounds 10-999) | IC50 (pAKT in BT474 cells; Compounds 1000-1279) | IC50 (pAKT in BT474 cells; Homo sapiens, BT-474, Compounds 1000-1279) |
| --- | --- | --- | --- | --- | --- |
| C=CC(=O)N1CCc2ncc(-c3nc(-c4ccc5c(c4)CNC(=O)C5)c4ccsc4c3-c3c(F)cc(F)cc3OCCOC)cc2C1 [Compound 963] | < 0.1 µM | A (percent of modification of PIK3CA protein ≥75%) | – | – | – |
| C=CC(=O)N1Cc2cc(-c3nc(-n4ccccc4=O)c4ccsc4c3-c3c(F)cc(F)cc3OCCOC)nn2C[C@H]1C [Compound 964, 1-[7-[2,4-difluoro-6-(2-methoxyethoxy)phenyl]-6-[(6R)-6-methyl-5-prop-2-enoyl-6,7-dihydro-4H-pyrazolo[1,5-a]pyrazin-2-1]thieno[3,2-c]pyridin-4-yl]pyridin-2-one] | – | A (percent of modification of PIK3CA protein ≥75%) | < 0.1 µM | – | – |
| C=CC(=O)N1CCn2nc(-c3nc(-c4ccnc(N(C)C)c4)c4ccsc4c3-c3c(F)cc(F)cc3OCCOC)cc2[C@@H]1C [Compound 965] | 0.1 to 1 µM | A (percent of modification of PIK3CA protein ≥75%) | – | – | – |
| C=CC(=O)N1CCn2nc(-c3nc(-c4ccc5c(c4)CN(C)C(=O)C5)c4ccsc4c3-c3c(F)cc(F)cc3OCCO)cc2[C@H]1C [Compound 973] | < 0.1 µM | A (percent of modification of PIK3CA protein ≥75%) | – | – | – |
| C=CC(=O)N1CCn2nc(-c3nc(-c4ccc5c(c4)CCN(C)C5=O)c4ccsc4c3-c3c(F)cc(F)cc3OCCOC)cc2[C@@H]1C [Compound 974] | 0.1 to 1 µM | D (percent of modification <25%) | – | – | – |
| C=CC(=O)N1CCn2nc(-c3nc(-c4ccc5c(c4)CN(C)C(=O)C5)c4ccsc4c3-c3c(F)cc(F)cc3OCCOC)cc2[C@@H]1C [Compound 975] | < 0.1 µM | D (percent of modification <25%) | – | – | – |
| C=CC(=O)N1CCc2nc(-c3nc(-c4ccc(N5CCN(C)CC5)nc4)c4ccsc4c3-c3c(F)cc(F)cc3OCCOC)sc2C1 [Compound 976] | < 0.1 µM | A (percent of modification of PIK3CA protein ≥75%) | – | – | – |
| C=CC(=O)N1CCc2nc(-c3nc(-c4ccc5c(c4)CCNC5=O)c4ccsc4c3-c3c(F)cc(F)cc3OCCOC)sc2C1 [Compound 977] | 0.1 to 1 µM | A (percent of modification of PIK3CA protein ≥75%) | – | – | – |
| C=CC(=O)N1CCc2nc(-c3nc(-c4ccc5nncn5c4)c4ccsc4c3-c3c(F)cc(F)cc3OCCOC)sc2C1 [Compound 978] | < 0.1 µM | A (percent of modification of PIK3CA protein ≥75%) | – | – | – |
| C=CC(=O)N1CCn2nc(-c3nc(-c4ccc5ncc(=O)n(C)c5c4)c4ccsc4c3-c3c(F)cc(F)cc3OCCO)cc2[C@H]1C [Compound 979] | < 0.1 µM | A (percent of modification of PIK3CA protein ≥75%) | – | – | – |
| C=CC(=O)N1CCn2nc(-c3nc(-c4ccc(=O)n(C(C)C)c4)c4ccsc4c3-c3c(F)cc(F)cc3OCCO)cc2[C@H]1C [Compound 980] | < 0.1 µM | A (percent of modification of PIK3CA protein ≥75%) | – | – | – |
| C=CC(=O)N1CCn2nc(-c3nc(-c4ccc(=O)n(CC(F)F)c4)c4ccsc4c3-c3c(F)cc(F)cc3OCCO)cc2C1C (stereo not drawn) [Compound 981] | < 0.1 µM | A (percent of modification of PIK3CA protein ≥75%) | – | – | – |
| C=CC(=O)N1CCn2nc(-c3nc(-c4ccc(N(C)C)nc4)c4ccsc4c3-c3c(F)cc(F)cc3OCCOC)cc2C1C (stereo not drawn) [Compound 982] | < 0.1 µM | A (percent of modification of PIK3CA protein ≥75%) | – | – | – |
| C=CC(=O)N1CCn2nc(-c3nc(-c4ccc5c(c4)CN(C)C(=O)C5)c4ccsc4c3-c3c(F)cc(F)cc3OCCOC)cc2C1C (stereo not drawn) [Compound 983] | < 0.1 µM | A (percent of modification of PIK3CA protein ≥75%) | – | – | – |
| C=CC(=O)N1CCn2nc(-c3nc(-c4cnn(C)c(=O)c4)c4ccsc4c3-c3c(F)cc(F)cc3OCCOC)cc2C1C (stereo not drawn) [Compound 984] | < 0.1 µM | A (percent of modification of PIK3CA protein ≥75%) | – | – | – |
| C=CC(=O)N1CCn2nc(-c3nc(-c4ccn5ncnc5c4)c4ccsc4c3-c3c(F)cc(F)cc3OCCOC)cc2C1C (stereo not drawn) [Compound 985] | < 0.1 µM | A (percent of modification of PIK3CA protein ≥75%) | – | – | – |
| C=CC(=O)N1CCn2nc(-c3nc(-c4ccn(C)c(=O)c4)c4ccsc4c3-c3c(F)cc(F)cc3OCCOC)cc2C1C (stereo not drawn) [Compound 986] | < 0.1 µM | A (percent of modification of PIK3CA protein ≥75%) | – | – | – |
| C=CC(=O)N1CCn2nc(-c3nc(-c4ccc(=O)n(C(C)C)c4)c4ccsc4c3-c3c(F)cc(F)cc3OCCOC)cc2C1C (stereo not drawn) [Compound 987] | < 0.1 µM | A (percent of modification of PIK3CA protein ≥75%) | – | – | – |

| SMILES | IC50 (pAKT in BT474 cells; Compounds 10-999) | % of modification [1] | IC50 (pAKT in BT474 cells; Homo sapiens, BT-474, Compounds 10-999) | IC50 (pAKT in BT474 cells; Compounds 1000-1279) | IC50 (pAKT in BT474 cells; Homo sapiens, BT-474, Compounds 1000-1279) |
| --- | --- | --- | --- | --- | --- |
| C=CC(=O)N1CCn2nc(-c3nc(-c4ccc(=O)n(CC(F)F)c4)c4ccsc4c3-c3c(F)cc(F)cc3OCCOC)cc2C1C (stereo not drawn) [Compound 988] | < 0.1 µM | A (percent of modification of PIK3CA protein ≥75%) | – | – | – |
| C=CC(=O)N1CCn2nc(-c3nc(-c4ccc5c(c4)NC(=O)C5)c4ccsc4c3-c3c(F)cc(F)cc3OCCOC)cc2C1C (stereo not drawn) [Compound 989] | < 0.1 µM | A (percent of modification of PIK3CA protein ≥75%) | – | – | – |
| C=CC(=O)N1CCn2nc(-c3nc(-c4ccc(CN(C)C)cc4)c4ccsc4c3-c3c(F)cc(F)cc3OCCOC)cc2C1C (stereo not drawn) [Compound 991] | < 0.1 µM | A (percent of modification of PIK3CA protein ≥75%) | – | – | – |
| C=CC(=O)N1CCn2nc(-c3nc(-c4cnn(C5CN(C)C5)c4)c4ccsc4c3-c3c(F)cc(F)cc3OCC(C)O)cc2C1C (stereo not drawn) [Compound 992] | < 0.1 µM | A (percent of modification of PIK3CA protein ≥75%) | – | – | – |
| C=CC(=O)N1CCn2nc(-c3nc(-c4ccc(OCCN(C)C)cc4)c4ccsc4c3-c3c(F)cc(F)cc3OCCOC)cc2C1C (stereo not drawn) [Compound 993] | < 0.1 µM | A (percent of modification of PIK3CA protein ≥75%) | – | – | – |
| C=CC(=O)N1CCn2nc(-c3nc(-c4ccc5c(c4)CCN(C)CC5)c4ccsc4c3-c3c(F)cc(F)cc3OCCOC)cc2C1C (stereo not drawn) [Compound 994] | 0.1 to 1 µM | D (percent of modification <25%) | – | – | – |
| C=CC(=O)N1CCn2nc(-c3nc(-c4ccc5c(c4)CCN(C)C5=O)c4ccsc4c3-c3c(F)cc(F)cc3OCCO)cc2C1C (stereo not drawn) [Compound 995] | < 0.1 µM | A (percent of modification of PIK3CA protein ≥75%) | – | – | – |
| C=CC(=O)N1CCn2nc(-c3nc(-c4ccc5c(c4)CCN(C)CC5)c4ccsc4c3-c3c(F)cc(F)cc3OCCOC)cc2C1C (stereo not drawn) [Compound 996] | < 0.1 µM | A (percent of modification of PIK3CA protein ≥75%) | – | – | – |
| C=CC(=O)N1CCc2nc(-c3nc(-c4ccc(=O)n(C)c4)c4ccsc4c3-c3c(F)cc(F)cc3OCCOC)sc2C1 [Compound 997] | < 0.1 µM | A (percent of modification of PIK3CA protein ≥75%) | – | – | – |
| C=CC(=O)N1CCc2nc(-c3nc(-c4ccc5c(c4)NC(=O)C5)c4ccsc4c3-c3c(F)cc(F)cc3OCCOC)sc2C1 [Compound 1003] | – | A (percent of modification of PIK3CA protein ≥75%) | – | < 0.1 µM | – |
| C=CC(=O)N1CCc2cc(-c3nc(-c4cnc5c(c4)CNC(=O)C5)c4ccsc4c3-c3c(F)cc(F)cc3OCCOC)nn2CC1 [Compound 1005] | – | D (percent of modification <25%) | – | > 1 µM | – |
| C=CC(=O)N1CCn2nc(-c3nc(N4CC5(CC(C(=O)NC)C5)C4)c4ccsc4c3-c3c(F)cc(F)cc3OCCOC)cc2[C@H]1C [Compound 1012, 2-((S)-6-((R)-5-acryloyl-4-methyl-4,5,6,7-tetrahydropyrazolo[1,5-a]pyrazin-2-yl)-7-(2,4-difluoro-6-(2-methoxyethoxy)phenyl)thieno[3,2-c]pyridin-4-yl)-N-methyl-2-azaspiro[3.3]heptane-6-carboxamide] | – | A (percent of modification of PIK3CA protein ≥75%) | – | – | < 0.1 µM |
| C=CC(=O)N1CCn2nc(-c3nc(N4CC5(CNC(=O)C5)C4)c4ccsc4c3-c3c(F)cc(F)cc3OCCOC)cc2C1C (stereo not drawn) [Compound 1013] | – | A (percent of modification of PIK3CA protein ≥75%) | – | 0.1 to 1 µM | – |
| C=CC(=O)N1CCn2nc(-c3nc(-c4ccc(CC(=O)NC)cc4)c4ccsc4c3-c3c(F)cc(F)cc3OCCOC)cc2C1C (stereo not drawn) [Compound 1017] | – | A (percent of modification of PIK3CA protein ≥75%) | – | < 0.1 µM | – |
| C=CC(=O)N1CCn2nc(-c3nc(-c4cccc(=O)n4C)c4ccsc4c3-c3c(F)cc(F)cc3OCCOC)cc2C1C (stereo not drawn) [Compound 1020] | – | A (percent of modification of PIK3CA protein ≥75%) | – | < 0.1 µM | – |
| C=CC(=O)N1CCc2cc(-c3nc(-c4cnc5c(cnn5C)c4)c4ccsc4c3-c3c(F)cc(F)cc3OCCOC)nn2CC1 [Compound 1023] | – | A (percent of modification of PIK3CA protein ≥75%) | – | < 0.1 µM | – |
| C=CC(=O)N1CCc2cc(-c3nc(-c4ccc5c(c4)CNC(=O)C5)c4ccsc4c3-c3c(F)cc(F)cc3OCCOC)nn2CC1 [Compound 1024] | – | A (percent of modification of PIK3CA protein ≥75%) | – | < 0.1 µM | – |
| C=CC(=O)N1CCc2cc(-c3nc(-c4ccc5c(c4)C(=O)NC5)c4ccsc4c3-c3c(F)cc(F)cc3OCCOC)nn2CC1 [Compound 1025] | – | A (percent of modification of PIK3CA protein ≥75%) | – | < 0.1 µM | – |
